Key:
[1] = Terminal half life in Beagle dog at 0.5 mg/kg, iv administered as 15 mins infusion by LC-MS/MS analysis; format: ADME, organism-based, Canis lupus familiaris; details: in vivo, read-out: beta t1/2 (converted)
[2] = Clearance in Beagle dog at 0.5 mg/kg, iv administered as 15 mins infusion or 1 mg/kg, po administered via gavage by LC-MS/MS analysis; format: ADME, organism-based, Canis lupus familiaris; details: in vivo
[3] = Maximum oral bioavailability in rat hepatocytes based well stirred liver model at 1 uM measured after 2 to 90 mins by LC-MS/MS analysis; format: ADME, Hepatocyte; details: time 2-90 min, read-out: Fmax
[4] = Maximum oral bioavailability in human hepatocytes based well stirred liver model at 1 uM measured after 2 to 90 mins by LC-MS/MS analysis; format: ADME, Hepatocyte; details: time 2-90 min, read-out: Fmax
[5] = Protein binding in pooled dog plasma assessed as unbound fraction incubated for 6 hrs by LC-MS/MS analysis based equilibrium dialysis method; format: ADME, cell-free, Canis lupus familiaris
[6] = target: Prostaglandin F2-alpha receptor (Rattus norvegicus, UniProt P43118); experiment: Antagonist activity at rat FPR stably expressed in CHO cells assessed as inhibition of PGF2alpha-induced calcium flux preincubated for 10 mins followed by PGF2alpha stimulation and measured for 120 secs by fluo-8 AM dye based fluorescence assay; format: cell-based
Sequence of Prostaglandin F2-alpha receptor (P43118 whole entry): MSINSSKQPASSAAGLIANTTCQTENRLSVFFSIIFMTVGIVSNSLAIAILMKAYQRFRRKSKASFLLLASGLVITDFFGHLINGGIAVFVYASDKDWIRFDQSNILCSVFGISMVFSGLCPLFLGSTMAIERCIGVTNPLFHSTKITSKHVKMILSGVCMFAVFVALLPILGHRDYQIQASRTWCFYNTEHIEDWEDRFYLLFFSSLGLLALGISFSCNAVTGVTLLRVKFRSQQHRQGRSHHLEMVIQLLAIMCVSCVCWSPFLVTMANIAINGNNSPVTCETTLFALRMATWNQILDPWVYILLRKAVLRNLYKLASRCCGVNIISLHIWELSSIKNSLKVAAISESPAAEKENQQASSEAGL

[7] = target: Prostaglandin E2 receptor EP4 subtype (Homo sapiens, UniProt P35408); experiment: Displacement of [3H]prostaglandin E2 from full-length recombinant human EP4 receptor expressed in HEK293 cell membranes measured after 120 mins by scintillation counting method
Sequence of Prostaglandin E2 receptor EP4 subtype (P35408 whole entry, the tested form may be a part): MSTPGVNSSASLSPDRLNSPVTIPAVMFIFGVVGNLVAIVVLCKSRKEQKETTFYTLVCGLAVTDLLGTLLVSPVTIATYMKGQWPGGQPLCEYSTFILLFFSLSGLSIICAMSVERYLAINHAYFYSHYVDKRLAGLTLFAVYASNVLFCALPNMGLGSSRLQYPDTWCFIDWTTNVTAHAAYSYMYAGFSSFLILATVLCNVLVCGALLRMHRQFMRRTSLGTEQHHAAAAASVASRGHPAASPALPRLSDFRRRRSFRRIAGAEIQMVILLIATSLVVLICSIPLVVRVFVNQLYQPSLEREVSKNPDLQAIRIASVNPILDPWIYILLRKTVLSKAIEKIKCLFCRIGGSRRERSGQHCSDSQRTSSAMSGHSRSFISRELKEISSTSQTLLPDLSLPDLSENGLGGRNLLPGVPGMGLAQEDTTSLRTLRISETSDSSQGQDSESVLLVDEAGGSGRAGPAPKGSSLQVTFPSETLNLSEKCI

[8] = Clearance in Wistar rat at 0.3 to 1 mg/kg, iv administered as bolus dose or 15 mins infusion by LC-MS/MS analysis; format: ADME, organism-based; details: Wistar, in vivo, dose 0.3-1 mg/kg
[9] = target: Prostaglandin D2 receptor 2 (Homo sapiens, UniProt Q9Y5Y4); experiment: Displacement of [3H]PGD2 from full-length recombinant human CRTH2 receptor expressed in CHOK1 cell membranes measured after 120 mins by scintillation counting method; set-up: species or system CHO-K1
Sequence of Prostaglandin D2 receptor 2 (Q9Y5Y4 whole entry): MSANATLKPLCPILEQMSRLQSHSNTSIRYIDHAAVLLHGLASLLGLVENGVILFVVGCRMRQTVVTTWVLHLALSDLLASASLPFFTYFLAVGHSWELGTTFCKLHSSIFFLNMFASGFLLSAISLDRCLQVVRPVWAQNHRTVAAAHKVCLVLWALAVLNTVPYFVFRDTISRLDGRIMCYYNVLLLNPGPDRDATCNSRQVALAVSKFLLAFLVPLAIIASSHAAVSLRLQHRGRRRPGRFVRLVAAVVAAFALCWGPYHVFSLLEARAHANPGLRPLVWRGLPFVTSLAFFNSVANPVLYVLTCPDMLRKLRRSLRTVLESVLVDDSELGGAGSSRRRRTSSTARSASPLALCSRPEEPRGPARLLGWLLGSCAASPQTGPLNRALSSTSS

[10] = Drug metabolism in rat hepatocytes assessed as oxidation at the pyrrolidine ring at 1 uM measured after 1 to 4 hrs by LC-MS/MS analysis; format: ADME, cell-based, Hepatocyte; details: time 1-4 hrs
[11] = target: Prostaglandin D2 receptor (Homo sapiens, UniProt Q13258); experiment: Displacement of [3H]PGD2 from full-length recombinant human DP1 receptor expressed in Chem-1 cell membranes measured after 120 mins by scintillation counting method
Sequence of Prostaglandin D2 receptor (Q13258 whole entry): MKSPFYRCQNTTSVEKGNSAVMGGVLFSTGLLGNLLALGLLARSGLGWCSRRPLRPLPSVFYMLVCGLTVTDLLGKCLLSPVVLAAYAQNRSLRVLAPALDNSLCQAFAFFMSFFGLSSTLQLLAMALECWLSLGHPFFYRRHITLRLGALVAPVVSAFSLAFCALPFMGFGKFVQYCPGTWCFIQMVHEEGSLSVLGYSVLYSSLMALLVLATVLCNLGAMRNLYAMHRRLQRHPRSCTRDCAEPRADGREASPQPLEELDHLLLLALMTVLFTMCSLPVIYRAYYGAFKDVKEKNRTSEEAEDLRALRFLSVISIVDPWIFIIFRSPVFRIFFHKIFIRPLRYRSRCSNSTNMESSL

[12] = Oral bioavailability in Beagle dog at 1 mg/kg administered via gavage by LC-MS/MS analysis; format: ADME, organism-based, Canis lupus familiaris; details: in vivo

half-life [1]: 14 h | clearance [2]: 13.3 mL/min/kg | Fh at 1 µM [3]: 67% | Fh at 1 µM [4]: 66% | fraction unbound at 6 h [5]: < 0.01 | IC50 [6]: 0.011 µM | IC50 [7]: > 9.4 µM | clearance [8]: 11.7 mL/min/kg | IC50 [9]: > 10 µM | Drug metabolism [10]: Metabolite_Detected | IC50 [11]: > 10 µM | bioavailability [12]: 45%
SMILES: Cc1c(N2CCCC2)nc2ccc(Br)cc2c1C(=O)NC[C@H](CCC(=O)O)c1ccccc1Cl [BAY-6672]
